ChEMBL document CHEMBL2073760, “Efflux transport of a new quinolone antibacterial agent, HSR-903, across the blood-brain barrier” (J Pharmacol Exp Ther, 1999)

Biological target: ATP-dependent translocase ABCB1 (Mus musculus, UniProt P21447)
Experiment: TP_TRANSPORTER: increase in brain concentration in mdr1a(-/-) mouse
Assay type: functional, organism-based
Conditions: in vivo

Sequence of ATP-dependent translocase ABCB1 (P21447 whole entry): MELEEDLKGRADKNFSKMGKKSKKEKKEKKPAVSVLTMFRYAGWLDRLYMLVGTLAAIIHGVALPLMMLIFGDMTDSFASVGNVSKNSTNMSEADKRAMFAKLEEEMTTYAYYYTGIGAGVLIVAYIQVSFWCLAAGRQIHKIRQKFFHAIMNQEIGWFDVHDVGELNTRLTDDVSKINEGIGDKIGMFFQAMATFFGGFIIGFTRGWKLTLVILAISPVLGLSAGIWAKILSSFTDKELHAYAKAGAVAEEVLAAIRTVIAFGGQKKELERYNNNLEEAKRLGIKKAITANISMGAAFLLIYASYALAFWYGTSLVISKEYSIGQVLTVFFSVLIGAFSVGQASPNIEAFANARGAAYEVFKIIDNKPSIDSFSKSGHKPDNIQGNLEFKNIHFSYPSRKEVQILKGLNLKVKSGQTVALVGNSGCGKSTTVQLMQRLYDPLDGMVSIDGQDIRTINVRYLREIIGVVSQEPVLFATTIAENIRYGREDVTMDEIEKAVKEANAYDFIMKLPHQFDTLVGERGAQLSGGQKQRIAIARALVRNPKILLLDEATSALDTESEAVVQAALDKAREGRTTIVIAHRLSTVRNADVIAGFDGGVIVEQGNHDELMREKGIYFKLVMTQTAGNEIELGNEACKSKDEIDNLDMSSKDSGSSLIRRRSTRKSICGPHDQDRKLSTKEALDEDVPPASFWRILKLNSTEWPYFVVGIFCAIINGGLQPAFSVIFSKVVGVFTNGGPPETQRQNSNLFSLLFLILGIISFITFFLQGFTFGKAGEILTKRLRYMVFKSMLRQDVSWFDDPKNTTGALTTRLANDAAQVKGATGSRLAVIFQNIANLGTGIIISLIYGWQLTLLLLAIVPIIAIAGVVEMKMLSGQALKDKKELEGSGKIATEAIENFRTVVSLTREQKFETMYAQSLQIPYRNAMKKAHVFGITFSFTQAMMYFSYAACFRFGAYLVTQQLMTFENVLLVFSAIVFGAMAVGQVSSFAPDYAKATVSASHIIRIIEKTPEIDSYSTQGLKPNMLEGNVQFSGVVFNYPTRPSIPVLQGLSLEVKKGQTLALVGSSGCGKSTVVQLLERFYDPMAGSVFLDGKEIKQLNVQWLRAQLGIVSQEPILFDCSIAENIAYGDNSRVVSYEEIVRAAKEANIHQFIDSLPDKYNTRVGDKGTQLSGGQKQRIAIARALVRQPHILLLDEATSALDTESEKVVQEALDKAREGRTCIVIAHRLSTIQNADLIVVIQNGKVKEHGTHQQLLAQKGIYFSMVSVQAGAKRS

Activity: substrate [+]
Structure (SMILES): CS(=O)(=O)O.Cc1c(N2C[C@@H](N)C3(CC3)C2)c(F)c(N)c2c(=O)c(C(=O)O)cn(C3CC3)c12
